Test systems include SR leukemia; NCI-H23 lung; KM12 colon; OVCAR-4 ovarian; UACC-257 melanoma; IGROV1 ovarian; OVCAR-5 ovarian; UO-31 renal; SNB-19 CNS; HCC-2998 colon; SK-OV-3 ovarian; SW-620 colon; HL-60(TB) leukemia; LOX IMVI melanoma; COLO 205 colon; M14 melanoma; CCRF-CEM leukemia; DMS 114 small cell lung; HCT-15 colon; SNB-78 CNS.
Test in all cases: inhibition of tumour cell growth, NCI panel, 48 h

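In this assay, cells in 96-well plates receive the compound at five concentrations for 48 hours. Endpoints are linearly interpolated between the surrounding concentrations. Definition used: TGI = concentration required for complete inhibition of growth.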

Consider `COc1cccc(CC2Cc3ccccc3CC(=O)N2)c1` (stereo not drawn), for which the TGI in the experiment with SR leukemia, in the experiment with NCI-H23 lung, in the experiment with KM12 colon, with OVCAR-4 ovarian, in the experiment with UACC-257 melanoma and in the experiment on IGROV1 ovarian was more than 100 µM each time. The TGI with OVCAR-5 ovarian, in the experiment with UO-31 renal, with SNB-19 CNS, in the experiment with HCC-2998 colon, with SK-OV-3 ovarian and in the experiment with SW-620 colon was more than 100 µM each time. In addition, the TGI is more than 100 µM with HL-60(TB) leukemia; 70.9 µM with LOX IMVI melanoma; more than 100 µM in the experiment with COLO 205 colon; 93.3 µM with M14 melanoma; more than 100 µM in the experiment on CCRF-CEM leukemia.
In the case of `c1ccc(-c2nnc(-c3nsc4ccccc34)o2)cc1`, the TGI with NCI-H23 lung, in the experiment on KM12 colon, with OVCAR-4 ovarian, in the experiment on DMS 114 small cell lung, in the experiment on UACC-257 melanoma and with IGROV1 ovarian was more than 100 µM each time. Moreover, the TGI in the experiment on OVCAR-5 ovarian, in the experiment with UO-31 renal, in the experiment on SNB-19 CNS, with HCC-2998 colon, in the experiment with SW-620 colon and in the experiment on HL-60(TB) leukemia was more than 100 µM in each case. For the same compound, the TGI in the experiment on LOX IMVI melanoma, in the experiment on COLO 205 colon, in the experiment on HCT-15 colon, with SNB-78 CNS, with M14 melanoma and in the experiment with CCRF-CEM leukemia was more than 100 µM in each case.
On to `NC(CCOCCP(=O)(O)CCOCCC(N)C(=O)O)C(=O)O` (stereo not drawn), for which the TGI in the experiment on SR leukemia, with NCI-H23 lung, with KM12 colon, in the experiment on OVCAR-4 ovarian, in the experiment on UACC-257 melanoma and in the experiment on IGROV1 ovarian was more than 100 µM in each case. Further, the TGI in the experiment on OVCAR-5 ovarian, in the experiment on UO-31 renal, in the experiment with SNB-19 CNS, in the experiment on HCC-2998 colon, in the experiment on SK-OV-3 ovarian and in the experiment on SW-620 colon was more than 100 µM each time. For the same compound, the TGI in the experiment on HL-60(TB) leukemia, with COLO 205 colon, with HCT-15 colon, with M14 melanoma and in the experiment on CCRF-CEM leukemia was more than 100 µM each time.
Consider `CCOC(=O)C1=C(C)N(NC(N)=O)C2(O)CCCC(=O)C12C` (stereo not drawn), for which the TGI with NCI-H23 lung, with KM12 colon, in the experiment on OVCAR-4 ovarian, with DMS 114 small cell lung, in the experiment with UACC-257 melanoma and in the experiment with IGROV1 ovarian was more than 100 µM each time. Also, the TGI in the experiment with OVCAR-5 ovarian, in the experiment on SNB-19 CNS, in the experiment on HCC-2998 colon, in the experiment with SK-OV-3 ovarian, in the experiment with SW-620 colon and with LOX IMVI melanoma was more than 100 µM in each case. Further, the TGI in the experiment with COLO 205 colon, in the experiment with HCT-15 colon, in the experiment on SNB-78 CNS and in the experiment on M14 melanoma was more than 100 µM each time.
Consider `O=C1OCc2cccc3c2-c2c1cccc2C(=O)OC3`, for which the TGI in the experiment with SR leukemia, in the experiment on NCI-H23 lung, with KM12 colon, with OVCAR-4 ovarian, in the experiment on DMS 114 small cell lung and in the experiment on IGROV1 ovarian was more than 100 µM each time. Further, the TGI in the experiment on UO-31 renal, in the experiment with SNB-19 CNS, in the experiment with HCC-2998 colon, with SK-OV-3 ovarian, with HL-60(TB) leukemia and in the experiment with COLO 205 colon was more than 100 µM throughout. Further, the TGI with HCT-15 colon, with SNB-78 CNS and with M14 melanoma was more than 100 µM in each case.

For the origin of these results see PubChem BioAssay (NCI).
